Reference: patent US20250134853A1, “COMPOUNDS AND METHODS FOR USING GALLOYLATED POLYPHENOLS TO TREAT DISEASES MEDIATED BY THIOL ISOMERASES” (Beth Israel Deaconess Medical Center, Inc., priority 2023, published 2025)
Entries after “also recorded” stand apart in the source; their conditions may differ. Read-outs that look alike come from different tables or passages of the source.

How the values were obtained:
PDI [1] = molecular target: T1, PDI (Homo sapiens, UniProt P07237); assay: Di-eosin-GSSG disulfide reductase assay, PDI; format: biochemical; conditions: for IC50: Table 1, IC50 curves on PDI activity (FIGS. 13B-E, 17A-E), read-out: Relative PDI inhibition
T1 construct: FLAG; made in house; host or cells: Escherichia coli Origami B (DE3)
T1 sequence (P07237 18-508): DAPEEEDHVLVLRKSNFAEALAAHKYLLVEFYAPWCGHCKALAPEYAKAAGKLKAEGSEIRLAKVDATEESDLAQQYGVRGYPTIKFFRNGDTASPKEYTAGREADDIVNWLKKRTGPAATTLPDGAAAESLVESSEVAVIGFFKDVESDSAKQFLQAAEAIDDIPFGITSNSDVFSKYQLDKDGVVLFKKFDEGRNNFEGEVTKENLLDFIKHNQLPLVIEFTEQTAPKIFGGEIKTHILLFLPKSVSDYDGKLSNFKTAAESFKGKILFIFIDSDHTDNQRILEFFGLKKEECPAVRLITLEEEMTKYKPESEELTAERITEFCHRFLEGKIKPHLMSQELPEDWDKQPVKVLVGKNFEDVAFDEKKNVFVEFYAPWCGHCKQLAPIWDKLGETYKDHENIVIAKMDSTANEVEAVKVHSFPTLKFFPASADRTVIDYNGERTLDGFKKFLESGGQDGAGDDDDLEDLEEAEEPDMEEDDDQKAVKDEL
Experimental: (§1) Di-eosin-GSSG disulfide reductase assay. The probe di-eosin glutathione disulfide, di-eosin-GSSG, was prepared by incubating 100 μM of GSSG with 1 mM of eosin isothiocyanate in 100 mM potassium phosphate containing 2 mM EDTA (pH 7.4), at 25° C. overnight in the dark. The mixture was passed down a PD-10 column and different fractions were collected. A fold change of fluorescence (Ex: 520 nm, Em: 550 nm) was calculated using samples subjected to either vehicle or 20 mM of DTT. Any fraction with a fold change >5 was kept. Using a stock of 10 mM eosin isothiocyanate, a standard curve was generated and concentration of samples were determined accordingly. Di-eosin-GSSG cleavage of purified thiol isomerases and PDI domains was monitored in a 96-well fluorescence plate format. PDI, CGXC-PDI variants, ERp5, ERp57, ERp46 and PDI domains were assayed at 50 nM in the presence or absence of the indicated small molecules. The assay included a thiol isomerase assay buffer (39 mM KH2PO4, 61 mM K2HPO4, 2 mM EDTA, 5 M DTT, pH 7.4) and 150 nM of the di-eosin-GSSG probe. The increase in fluorescence was determined for 60 min by excitation at 520 nm and emission at 550 nm in a Synergy Biotek 4. The reduction of 150 nM di-eosin-GSSG by 5 μM DTT in the presence or absence of mentioned small molecule or proteins served as a negative control.

PDI [2] = molecular target: T1, PDI; assay: Insulin reductase assay; format: biochemical; conditions: 20 μM
Experimental: Insulin reductase assay. Insulin was prepared by mixing 12.5 mg/mL insulin in 50 mM Tris-HCl, pH 8. 1 M HCl was carefully added to drop the pH to 2.0 for solution clarification. Once the solution clarifies, 1 M NaOH was added to rapidly adjust the pH back to 8.0. The solution was then adjusted to 1.5 mM (10 mg/mL) with 50 mM Tris-HCl, aliquoted and stored in −20° C. until use. 2× concentrations of thiol isomerases were prepared (final concentrations as indicated in each assay) and mixed with 1.2 mM DTT (final 0.3 mM) and 0.4 mM insulin (final 0.1 mM) using a thiol isomerase activity assay buffer. Insulin precipitation from enzyme-mediated reduction was assayed in 96-well clear bottom plates at 650 nm absorption.

[3] = tested on: PDI domain fragments (a, a′, ab, abb′, b′xa′); assay: Di-eosin-GSSG assay on isolated PDI domain fragments; format: biochemical; conditions: 20 μM
Experimental: as §1

[4] = tested on: recombinant PDI, ERp57, and ERp5; assay: Di-eosin-GSSG assay, thiol isomerases at 20 μM compound; format: biochemical; conditions: 15 minute incubation
SARS-CoV-2 M^pro [5] = molecular target: T2, SARS-CoV-2 M^pro (Severe acute respiratory syndrome coronavirus 2, UniProt P0DTD1)
SARS-CoV-2 = conditions: cited from earlier work
SARS-CoV-2 M^pro [6] = molecular target: T2, SARS-CoV-2 M^pro; conditions: cited from earlier work
platelets = conditions: cited from earlier work
[7] = tested on: thrombus formation in carotid artery after FeCl3; assay: Ferric chloride thrombosis model; format: in vivo, C57Bl/6J mice; conditions: punicalagin by oral gavage
Experimental: Wildtype C57Bl/6J mice were exposed to 100 μg/g punicalagin via oral gavage (n=5) or vehicle (n=7). The carotid artery was surgically isolated, exposed to 10% w/v FeCl3 for 3 min, and visualized by fluorescence microscopy. Time to occlusion was monitored.
Ferric chloride thrombosis model. Thrombus formation induced by ferric chloride was assayed as previously described in Li W, et al. Circ. Res. 115:997-1006, 2014. The mice were treated by oral gavage with 100 μg/g punicalagin or vehicle control for 90 min prior to injury. Before the 90 min time point, the mice were anesthetized with a cocktail of 125 mg/kg ketamine and 12 mg/kg xylazine. The left jugular vein was cannulated for infusion of a DyLight 649 conjugated antibody against GPIbβ (Emfret Analytics; 0.1 μg/g) and 50 mg/kg pentobarbital for maintenance anesthetics. […] Thrombi formation was observed using a 10×0.3 NA water immersion objective mounted to an AX-70 fluorescence microscope (Olympus Japan) equipped with a CCD camera (ORCA Flash 4.0, Hamamatsu Photonics, Japan). Data were analyzed by Slidebook 6.0 (Intelligent Imaging Innovations).
Punicalagin inhibits thrombus formation. […] The ability of orally delivered punicalagin to inhibit thrombus formation following vascular injury was assessed. […] Vessel patency was visualized by fluorescence microscopy using anti-GPIbβ antibody to monitor for vascular occlusion. […]

[8] = tested on: bleeding following tail clip; assay: Tail clip assay of hemostasis; conditions: punicalagin ingestion
ERp5 = molecular target: T3, ERp5 (Homo sapiens, UniProt Q15084); assay: Di-eosin-GSSG disulfide reductase assay, ERp5; format: biochemical; conditions: 20 μM
T3 construct: recombinant His-tagged full-length ERp5, ERp72; His-tag; made in house; host or cells: Escherichia coli Origami B (DE3)
T3 sequence (Q15084 20-440): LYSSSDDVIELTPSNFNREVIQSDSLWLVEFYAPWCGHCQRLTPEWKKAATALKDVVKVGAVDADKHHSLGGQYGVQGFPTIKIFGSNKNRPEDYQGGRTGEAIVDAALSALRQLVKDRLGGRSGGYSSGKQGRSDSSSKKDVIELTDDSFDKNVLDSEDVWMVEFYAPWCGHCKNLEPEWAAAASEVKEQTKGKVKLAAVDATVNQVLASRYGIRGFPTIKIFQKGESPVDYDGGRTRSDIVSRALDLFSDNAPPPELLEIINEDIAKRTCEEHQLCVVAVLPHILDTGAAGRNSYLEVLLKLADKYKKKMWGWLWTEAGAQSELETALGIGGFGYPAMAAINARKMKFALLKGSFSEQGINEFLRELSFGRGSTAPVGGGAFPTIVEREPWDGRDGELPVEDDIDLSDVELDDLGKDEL
Description: Recombinant protein purification. Recombinant ‘double-tagged’ (streptavidin-binding protein-tagged and FLAG-tagged) full-length PDI, ERp57, recombinant His-tagged full-length ERp5, ERp72, PDI domain fragments, and PDI mutant were cloned into a pET-15b vector at the NdeI and BamHI sites and transformed into Escherichia coli Origami B (DE3) cells (EMD Chemicals). The recombinant proteins were expressed and isolated by affinity chromatography with complete His-Tag purification resin (Roche Applied Science) or Pierce High-Capacity Streptavidin Agarose beads and purified on a Superdex 200 (GE Healthcare).
Di-eosin-GSSG disulfide reductase assay. […] Any fraction with a fold change >5 was kept.

| Compound | IC50 (PDI [1]) | inhibition of the ability of PDI to reduce insulin (PDI [2]) | inhibition of isolated a′ domain cleavage of di-eosin-GSSG [3] | inhibition of thiol isomerases (PDI, ERp57, ERp5) in words [4] | IC50 (SARS-CoV-2 M^pro [5]; literature values (Table 2); read-out: SARS-CoV-2 M^pro inhibition; cited from earlier work) | IC50 (SARS-CoV-2; Vero Cells, read-out: Inhibition of viral replication IC50) | inhibition of SARS-CoV-2 / infection (in words) (SARS-CoV-2) | Modeling shows gallic acid interaction with His41 or Glu166 (SARS-CoV-2 M^pro [6]) | antiplatelet activities (platelets) | inhibition of thiol isomerases (PDI, ERp57, ERp5) in words ([4]; listed as punicalagin) | vessels that never occluded ([7]; 10% FeCl3 for 3 min) | time for occlusion of vessels that clotted ([7]; compared to controls) | IC50 (SARS-CoV-2 M^pro [5]; read-out: SARS-CoV-2 M^pro inhibition; literature values (Table 2); cited from earlier work) | Inhibition of viral replication (cell system in which shown) (SARS-CoV-2) | cessation of bleeding, Kaplan Meier curves [8] | total bleeding time ([8]; 1 mm diameter tail transection) | activity against ERp5 (in words) (ERp5) | inhibition of PDI (in words) (PDI [1]) | hydrogen bonding with M^pro in published molecular dynamic simulations (SARS-CoV-2 M^pro [6]) |
| --- | --- | --- | --- | --- | --- | --- | --- | --- | --- | --- | --- | --- | --- | --- | --- | --- | --- | --- | --- |
| 1,2,3,4,6-pentagalloylglucose [Pentagalloyl-glucose] | 2.9 µM | inhibited the ability of PDI to reduce insulin | inhibited the ability of isolated a′ domain to cleave di-eosin-GSSG | potently inhibited all thiol isomerases tested | 25 µM | 15 µM | inhibits SARS-CoV-2 viral infection in culture | occludes His41;; also recorded: reacts with Glu166 | have antiplatelet activities |  |  |  |  |  |  |  |  |  |  |
| O=C1O[C@H]2[C@@H]3OC(=O)c4cc(O)c(O)c(O)c4-c4c(O)c(O)c5oc(=O)c6c(c(O)c(O)c7oc(=O)c4c5c76)-c4c(cc(O)c(O)c4O)C(=O)OC[C@H]3OC(O)[C@@H]2OC(=O)c2cc(O)c(O)c(O)c2-c2c1cc(O)c(O)c2O (mixture of isomers) [Punicalagin] | 19 µM | inhibited the ability of PDI to reduce insulin | inhibited the ability of isolated a′ domain to cleave di-eosin-GSSG | strong inhibition of thiol isomerases |  |  | inhibits both SARS-CoV-2 M^pro and omicron variants of SARS-CoV-2 infection |  |  | strong thiol isomerase inhibition | ~50% | consistently prolonged | 5.7 µM | 293T-hACE2 and NIC-H460 | prolonged bleeding | 110 s |  |  |  |
| O=C(O[C@@H]1Cc2c(O)cc(O)cc2O[C@H]1c1ccc(O)c(O)c1)c1cc(O)c(O)c(O)c1 [Catechin 3-gallate] | > 20 µM |  |  | some inhibition, particularly of ERp5 |  |  |  |  |  |  |  |  |  |  |  |  | had activity against ERp5 |  |  |
| O=C(OC[C@H]1O[C@@H](OC(=O)c2cc(O)c(O)c(OC(=O)c3cc(O)c(O)c(O)c3)c2)[C@H](OC(=O)c2cc(O)c(O)c(OC(=O)c3cc(O)c(O)c(O)c3)c2)[C@@H](OC(=O)c2cc(O)c(O)c(OC(=O)c3cc(O)c(O)c(O)c3)c2)[C@@H]1OC(=O)c1cc(O)c(O)c(OC(=O)c2cc(O)c(O)c(O)c2)c1)c1cc(O)c(O)c(OC(=O)c2cc(O)c(O)c(O)c2)c1 [Tannic acid] | 8.5 µM | inhibited the ability of PDI to reduce insulin | inhibited the ability of isolated a′ domain to cleave di-eosin-GSSG | potently inhibited all thiol isomerases tested |  |  | blocks SARS-CoV-2 virus infection in 293T cells expressing hACE2 | His41; Glu166 | have antiplatelet activities |  |  |  |  | 293T-hACE2 and NIC-H460 |  |  |  | inhibit PDI | hydrogen bonding of TA with M^pro Cys145 |
| Catechin |  |  |  |  |  |  |  |  |  |  |  |  |  |  |  |  | had activity against ERp5 |  |  |
